# Measured values reported in PubChem BioAssay (NCI).
# Where “and” joins values, the source holds several entries; their conditions need not be identical. Equal entries are not always repeated.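 The compound was tested at five concentrations on cells cultured in 96-well plates, with a 48-hour exposure period. GI50 is the concentration that inhibits growth by half. TGI: total growth inhibition.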
# Legend:
# Assay in all cases: NCI-60 cell line screen, 48 h
# 786-0 renal = system: 786-0 renal
# A498 renal = system: A498 renal
# A549 NSCLC = system: A549 NSCLC
# ACHN renal = system: ACHN renal
# BT-549 breast = system: BT-549 breast
# CAKI-1 renal = system: CAKI-1 renal
# CCRF-CEM leukemia = system: CCRF-CEM leukemia
# COLO 205 colon = system: COLO 205 colon
# EKVX NSCLC = system: EKVX NSCLC
# HCC-2998 colon = system: HCC-2998 colon
# HCT-15 colon = system: HCT-15 colon
# HL-60(TB) leukemia = system: HL-60(TB) leukemia
# HOP-62 NSCLC = system: HOP-62 NSCLC
# HOP-92 NSCLC = system: HOP-92 NSCLC
# HS 578T breast = system: HS 578T breast
# HT29 colon = system: HT29 colon
# IGROV1 ovarian = system: IGROV1 ovarian
# K-562 leukemia = system: K-562 leukemia
# KM12 colon = system: KM12 colon
# LOX IMVI melanoma = system: LOX IMVI melanoma
# M14 melanoma = system: M14 melanoma
# MALME-3M melanoma = system: MALME-3M melanoma
# MCF7 breast = system: MCF7 breast
# MDA-MB-231 breast = system: MDA-MB-231 breast
# MDA-MB-435 = system: MDA-MB-435
# MDA-N = system: MDA-N
# MOLT-4 leukemia = system: MOLT-4 leukemia
# NCI-H226 lung = system: NCI-H226 lung
# NCI-H23 lung = system: NCI-H23 lung
# NCI-H460 lung = system: NCI-H460 lung
# NCI/ADR-RES ovarian = system: NCI/ADR-RES ovarian
# OVCAR-3 ovarian = system: OVCAR-3 ovarian
# OVCAR-4 ovarian = system: OVCAR-4 ovarian
# OVCAR-5 ovarian = system: OVCAR-5 ovarian
# OVCAR-8 ovarian = system: OVCAR-8 ovarian
# PC-3 prostate = system: PC-3 prostate
# RPMI-8226 leukemia = system: RPMI-8226 leukemia
# RXF 393 renal = system: RXF 393 renal
# SF-268 CNS = system: SF-268 CNS
# SF-295 CNS = system: SF-295 CNS
# SF-539 CNS = system: SF-539 CNS
# SK-MEL-2 melanoma = system: SK-MEL-2 melanoma
# SK-MEL-28 melanoma = system: SK-MEL-28 melanoma
# SK-MEL-5 melanoma = system: SK-MEL-5 melanoma
# SK-OV-3 ovarian = system: SK-OV-3 ovarian
# SN12C renal = system: SN12C renal
# SNB-19 CNS = system: SNB-19 CNS
# SNB-75 CNS = system: SNB-75 CNS
# SW-620 colon = system: SW-620 colon
# T-47D breast = system: T-47D breast
# TK-10 renal = system: TK-10 renal
# U251 CNS = system: U251 CNS
# UACC-257 melanoma = system: UACC-257 melanoma
# UACC-62 melanoma = system: UACC-62 melanoma
# UO-31 renal = system: UO-31 renal
# HCT-116 colon = system: HCT-116 colon
# NCI-H522 lung = system: NCI-H522 lung
# SR leukemia = system: SR leukemia
smiles,measurement,setting,value
CC(C)NCCCNc1c2ccccc2nc2cccc([N+](=O)[O-])c12,GI50,786-0 renal,0.0108 µM
same,TGI,786-0 renal,0.0325 µM and 0.0704 µM
same,GI50,A498 renal,0.0123 µM
same,TGI,A498 renal,0.0328 µM and 0.0432 µM
same,TGI,A549 NSCLC,0.15 µM and 0.0585 µM
same,TGI,ACHN renal,0.057 µM and 0.106 µM
same,GI50,BT-549 breast,0.0222 µM
same,TGI,BT-549 breast,0.157 µM and 0.0599 µM
same,TGI,CAKI-1 renal,0.239 µM
same,GI50,CCRF-CEM leukemia,0.0118 µM
same,TGI,CCRF-CEM leukemia,0.0854 µM and 0.0644 µM
same,TGI,COLO 205 colon,0.013 µM and 0.0168 µM
same,GI50,EKVX NSCLC,0.0372 µM
same,TGI,EKVX NSCLC,0.0791 µM and 0.268 µM
same,TGI,HCC-2998 colon,0.0165 µM
same,TGI,HCT-15 colon,> 100 µM
same,GI50,HL-60(TB) leukemia,0.0102 µM
same,TGI,HOP-62 NSCLC,0.0809 µM and 0.0244 µM
same,TGI,HOP-92 NSCLC,0.0397 µM
same,GI50,HS 578T breast,0.0218 µM
same,TGI,HS 578T breast,0.29 µM and 0.113 µM
same,TGI,HT29 colon,0.0216 µM
same,TGI,IGROV1 ovarian,0.0352 µM and 0.134 µM
same,TGI,K-562 leukemia,0.0169 µM and 0.0104 µM
same,TGI,KM12 colon,0.0409 µM and 0.0284 µM
same,GI50,LOX IMVI melanoma,0.0153 µM
same,TGI,LOX IMVI melanoma,0.0256 µM and 0.116 µM
same,TGI,M14 melanoma,0.0244 µM
same,GI50,MALME-3M melanoma,0.012 µM
same,TGI,MALME-3M melanoma,0.0272 µM and 0.0471 µM
same,TGI,MCF7 breast,0.043 µM
same,GI50,MDA-MB-231 breast,0.0107 µM
same,TGI,MDA-MB-231 breast,0.047 µM and 0.114 µM
same,TGI,MDA-MB-435,0.0225 µM and 0.0186 µM
same,TGI,MDA-N,0.0292 µM
same,TGI,MOLT-4 leukemia,0.0254 µM and 0.0169 µM
same,TGI,NCI-H226 lung,0.0903 µM
same,TGI,NCI-H23 lung,0.00908 µM
same,TGI,NCI-H460 lung,0.103 µM
same,GI50,NCI/ADR-RES ovarian,1.86 µM
same,TGI,NCI/ADR-RES ovarian,4.65 µM and 24.4 µM
same,TGI,OVCAR-3 ovarian,0.037 µM
same,TGI,OVCAR-4 ovarian,0.0236 µM
same,TGI,OVCAR-5 ovarian,0.145 µM and 0.0183 µM
same,TGI,OVCAR-8 ovarian,0.0555 µM
same,TGI,PC-3 prostate,0.038 µM
same,TGI,RPMI-8226 leukemia,0.00796 µM and 0.0262 µM
same,TGI,RXF 393 renal,0.0183 µM
same,GI50,SF-268 CNS,0.0167 µM
same,TGI,SF-268 CNS,0.0323 µM and 0.182 µM
same,TGI,SF-295 CNS,0.0451 µM and 0.173 µM
same,GI50,SF-539 CNS,0.0142 µM
same,TGI,SF-539 CNS,0.228 µM and 0.0409 µM
same,TGI,SK-MEL-2 melanoma,0.0299 µM
same,GI50,SK-MEL-28 melanoma,0.0244 µM
same,TGI,SK-MEL-28 melanoma,0.289 µM and 0.0748 µM
same,TGI,SK-MEL-5 melanoma,0.0163 µM
same,TGI,SK-OV-3 ovarian,0.394 µM and 0.273 µM
same,TGI,SN12C renal,0.15 µM
same,GI50,SNB-19 CNS,0.0112 µM
same,GI50,SNB-75 CNS,0.0161 µM
same,TGI,SNB-75 CNS,0.0974 µM and 0.0452 µM
same,TGI,SW-620 colon,0.209 µM and 0.237 µM
same,TGI,T-47D breast,0.0582 µM and 0.0968 µM
same,TGI,TK-10 renal,0.463 µM and 0.0708 µM
same,TGI,U251 CNS,0.119 µM and 0.0496 µM
same,GI50,UACC-257 melanoma,0.0194 µM
same,TGI,UACC-257 melanoma,0.17 µM and 0.0458 µM
same,TGI,UACC-62 melanoma,0.0374 µM and 0.031 µM
same,GI50,UO-31 renal,0.0306 µM
same,TGI,UO-31 renal,0.451 µM and 0.148 µM
c1cncc(CNCCN2CCNCC2)c1,TGI,786-0 renal,> 100 µM
same,TGI,A498 renal,> 100 µM
same,TGI,A549 NSCLC,> 100 µM
same,TGI,ACHN renal,> 100 µM
same,TGI,BT-549 breast,> 100 µM
same,TGI,CAKI-1 renal,> 100 µM
same,TGI,COLO 205 colon,> 100 µM
same,TGI,EKVX NSCLC,> 100 µM
same,TGI,HCT-116 colon,> 100 µM
same,TGI,HCT-15 colon,> 100 µM
same,TGI,HOP-62 NSCLC,> 100 µM
same,TGI,HOP-92 NSCLC,> 100 µM
same,TGI,HS 578T breast,> 100 µM
same,TGI,HT29 colon,> 100 µM
same,TGI,IGROV1 ovarian,> 100 µM
same,TGI,K-562 leukemia,> 100 µM
same,TGI,KM12 colon,> 100 µM
same,TGI,LOX IMVI melanoma,> 100 µM
same,TGI,M14 melanoma,> 100 µM
same,TGI,MALME-3M melanoma,> 100 µM
same,TGI,MCF7 breast,> 100 µM
same,TGI,MDA-MB-231 breast,> 100 µM
same,TGI,MDA-MB-435,> 100 µM
same,TGI,MDA-N,> 100 µM
same,TGI,MOLT-4 leukemia,> 100 µM
same,TGI,NCI-H226 lung,> 100 µM
same,TGI,NCI-H23 lung,> 100 µM
same,TGI,NCI-H460 lung,> 100 µM
same,TGI,NCI-H522 lung,> 100 µM
same,TGI,NCI/ADR-RES ovarian,> 100 µM
same,TGI,OVCAR-3 ovarian,> 100 µM
same,TGI,OVCAR-4 ovarian,> 100 µM
same,TGI,OVCAR-5 ovarian,> 100 µM
same,TGI,OVCAR-8 ovarian,> 100 µM
same,TGI,PC-3 prostate,> 100 µM
same,TGI,RPMI-8226 leukemia,> 100 µM
same,TGI,RXF 393 renal,> 100 µM
same,TGI,SF-268 CNS,> 100 µM
same,TGI,SF-295 CNS,> 100 µM
same,TGI,SF-539 CNS,> 100 µM
same,TGI,SK-MEL-2 melanoma,> 100 µM
same,TGI,SK-MEL-28 melanoma,> 100 µM
same,TGI,SK-MEL-5 melanoma,> 100 µM
same,TGI,SK-OV-3 ovarian,> 100 µM
same,TGI,SN12C renal,> 100 µM
same,TGI,SNB-19 CNS,> 100 µM
same,TGI,SNB-75 CNS,> 100 µM
same,TGI,SR leukemia,> 100 µM
same,TGI,SW-620 colon,> 100 µM
same,TGI,T-47D breast,> 100 µM
same,TGI,TK-10 renal,> 100 µM
same,TGI,U251 CNS,> 100 µM
same,TGI,UACC-257 melanoma,> 100 µM
same,TGI,UACC-62 melanoma,> 100 µM
same,TGI,UO-31 renal,> 100 µM
